Laboratory results published in US12285431B2, “Treatment of Rb-negative tumors using topoisomerase inhibitors in combination with cyclin dependent kinase 4/6 inhibitors” (G1 Therapeutics, Inc., priority 2014, dated 2025).
pEC50, pIC50: −log10 of the molar value.

How the values were obtained:
[1] = tested on: MCF7 (breast adenocarcinoma, Rb-positive); assay: Cellular proliferation assay (CellTiter-Glo), MCF7; format: cell-based; details: Homo sapiens, MCF7, 144 h, cell viability after six days
Description: (§1) Further cellular proliferation assays were conducted using the following cancer cell lines: MCF7 (breast adenocarcinoma—Rb-positive), ZR-75-1 (breast ductal carcinoma—Rb-positive), H69 (human small cell lung cancer—Rb-negative) cells, or A2058 (human metastatic melanoma cells—Rb-negative). These cells were seeded in Costar (Tewksbury, Massachusetts) 3093 96 well tissue culture treated white walled/clear bottom plates. Cells were treated with the compounds of Table 1 as nine point dose response dilution series from 10 uM to 1 nM. Cells were exposed to compounds and then cell viability was determined after either four (H69) or six (MCF7, ZR75-1, A2058) days as indicated using the CellTiter-Glo® luminescent cell viability assay (CTG; Promega, Madison, Wisconsin, United States of America) following the manufacturer's recommendations. Plates were read on BioTek (Winooski, Vermont) Syngergy2 multi-mode plate reader. The Relative Light Units (RLU) were plotted as a result of variable molar concentration and data was analyzed using Graphpad (LaJolla, California) Prism 5 statistical software to determine the EC50 for each compound.

[2] = tested on: H69 (human small cell lung cancer, Rb-negative) cells; assay: Cellular proliferation assay (CellTiter-Glo), H69; format: cell-based; details: NCI-H69, 96 h, cell viability after four days
Description: as §1

[3] = tested on: A2058 (human metastatic melanoma cells, Rb-negative); assay: Cellular proliferation assay (CellTiter-Glo), A2058; format: cell-based; details: A2058, 144 h, cell viability after six days
Description: as §1

CDK4/CyclinD1 = CDK4/CyclinD1 (Homo sapiens, UniProt P11802); assay: CDK4/cyclinD1 kinase assay (Nanosyn, Caliper microfluidic kinase detection); format: biochemical; details: Table 2; 12-point dose-response, ATP at Km (200 μM), 10 hr; read-out: CDK4/CycD1 IC50
Description: The assays were performed using microfluidic kinase detection technology (Caliper Assay Platform). The compounds were tested in 12-point dose-response format in singlicate at Km for ATP. Phosphoacceptor substrate peptide concentration used was 1 μM for all assays and Staurosporine was used as the reference compound for all assays. Specifics of each assay are as described below:
CDK4/CyclinD1: Enzyme concentration: 1 nM; ATP concentration: 200 μM; Incubation time: 10 hr.

[4] = tested on: ZR-75-1 (breast ductal carcinoma, Rb-positive); assay: Cellular proliferation assay (CellTiter-Glo), ZR-75-1; format: cell-based; details: Homo sapiens, ZR-75-1, 144 h, cell viability after six days, read-out: ZR75-1 Cellular EC50
Description: as §1

HS68 cells = assay: G1 arrest (cellular G1 and S-phase) assay, propidium iodide flow cytometry; format: cell-based, human; details: Homo sapiens, Hs68, HS68 cells
Description: HS68 cells (human skin fibroblast cell line (Rb-positive)) were stained with propidium iodide staining solution and run on Dako Cyan Flow Cytometer. The fraction of cells in G0-G1 DNA cell cycle versus the fraction in S-phase DNA cell cycle was determined using FlowJo 7.2.2 analysis.
The compounds listed in Table 1 were tested for their ability to arrest HS68 cells at the G1 phase of the cell cycle.

[5] = tested on: small cell lung cancer cell lines; details: Hamilton et al., cited from earlier work; for cytotoxic / chemosensitizing effect in combination with various camptothecin derivatives (in words): Molecules (2014), rubitecan, 9AC, topotecan, SN38, CPT109; for cytotoxic effect in combination with topotecan (in words): Journal of Cancer Therapy (2013)
[6] = tested on: NCI-H69 SCLC xenograft (Rb-negative); format: in vivo
Excerpt: An Rb-negative model of small cell lung cancer was used in the following example. Briefly, xenografts of National Cancer Institute (NCI) […] cells were grafted onto the mice (Athymic Nude (Crl:NU(NCr)-Foxn1^nu); 6-12 week old females) using the South Texas Accelerated Research Therapeutics (START) Cell-Based Xenograft (START-CBX) tumor model. H69 cells are human small cell lung cancer cells and are Rb-negative.
Data collected from the efficacy study included animal weights, observations and tumor dimensions. This information was used to determine agent tolerability based on weight change and gross physiologic changes and anticancer activity based on tumor growth delay or regression. The designated endpoint for this study was an individual tumor volume of 1 cm^3 or 60 days following treatment initiation.
Tumor fragments from NCI-H69 were harvested from host animals and implanted into immune-deficient mice and the study initiated at a mean tumor volume of approximately 150-250 mm^3.
Additional details of the study are outlined in Table 6 below. […] Tumor size was examined twice per week and the endpoint for this study was Day 59.

[7] = Group 6: Compound T vehicle and topotecan 0.6 mg/kg IP qdx5x4

CDK4/CyclinD1, sequence (P11802 whole entry, species assumed): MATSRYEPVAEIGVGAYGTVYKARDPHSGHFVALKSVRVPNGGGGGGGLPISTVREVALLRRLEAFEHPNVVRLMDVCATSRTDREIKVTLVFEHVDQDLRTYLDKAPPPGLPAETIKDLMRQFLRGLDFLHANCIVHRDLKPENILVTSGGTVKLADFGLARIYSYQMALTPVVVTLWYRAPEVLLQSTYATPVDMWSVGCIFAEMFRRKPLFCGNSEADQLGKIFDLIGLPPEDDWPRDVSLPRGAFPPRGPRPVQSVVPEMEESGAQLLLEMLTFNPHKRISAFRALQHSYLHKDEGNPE
CDK4/CyclinD1, sequence (P24385 whole entry partner, species assumed): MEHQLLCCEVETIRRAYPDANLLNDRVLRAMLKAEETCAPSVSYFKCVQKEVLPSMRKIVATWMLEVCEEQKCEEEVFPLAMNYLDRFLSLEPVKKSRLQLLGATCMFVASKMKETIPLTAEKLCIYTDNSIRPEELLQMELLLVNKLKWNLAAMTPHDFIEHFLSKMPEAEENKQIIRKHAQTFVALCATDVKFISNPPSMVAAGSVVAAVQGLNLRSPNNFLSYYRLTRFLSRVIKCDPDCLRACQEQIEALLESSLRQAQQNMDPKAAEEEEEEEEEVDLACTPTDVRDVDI

SMILES	pEC50 [1]	pEC50 [2]	pEC50 [3]	pIC50 (CDK4/CyclinD1)	pEC50 [4]	pEC50 (HS68 cells)	further results
O=C1NCC2(CCCCC2)n2c1cc1cnc(Nc3ccc(N4CCC(N5CCCCC5)CC4)cn3)nc12 [N]	7.55	< 5.52	5.84	9.00	7.62	7.60	
CC1CN(c2ccc(Nc3ncc4cc5n(c4n3)C3(CCCCC3)CNC5=O)nc2)CC(C)N1CC1CC1 (stereo not shown) [OO]	6.92	< 5.52	< 5.52		6.64	7.02	
CN(C)C1CCN(c2ccc(Nc3ncc4cc5n(c4n3)C3(CCCCC3)CNC5=O)nc2)CC1 [O]	7.25	< 5.52	5.57		7.54	7.40	
CC(=O)c1c(C)c2cnc(Nc3ccc(N4CCNCC4)cn3)nc2n(C2CCCC2)c1=O [PD0332991, palbociclib]							cytotoxic / chemosensitizing effect in combination with various camptothecin derivatives (in words) [5]: low chemosensitizing activity
C[C@@H]1CN(c2ccc(Nc3ncc4cc5n(c4n3)C3(CCCCC3)CNC5=O)nc2)C[C@H](C)N1 [P]	7.22	< 5.52	< 5.52	8.48	7.37	7.52	
C[C@H]1CN(c2ccc(Nc3ncc4cc5n(c4n3)C3(CCCCC3)CNC5=O)nc2)CCN1C [R]	7.44	< 5.52	5.58	9.30	7.30	7.15	
CN(C)C1CCN(c2ccc(Nc3ncc4cc5n(c4n3)C3(CCCCC3)CNC5=O)nn2)CC1 [SS]	7.03	5.53	5.78	9.10	7.28	7.10	
C[C@@H]1CN(c2ccc(Nc3ncc4cc5n(c4n3)C3(CCCCC3)CNC5=O)nc2)CCN1 [V]	7.30	< 5.52	5.87	8.54	7.54	7.15	
CN(C)C1CCN(c2ccc(Nc3ncc4cc5n(c4n3)C3(CCCC3)CNC5=O)nc2)CC1 [YY]	6.59			8.34	6.24	6.76	
C[C@H](O)CN1[C@H](C)CN(c2ccc(Nc3ncc4cc5n(c4n3)C3(CCCCC3)CNC5=O)nc2)C[C@@H]1C [Z]	6.85			8.49	7.27	6.96	
Cn1cnc2c(NCc3ccccc3)nc(NCCO)nc21 [olomoucine]							cytotoxic effect in combination with topotecan (in words) [5]: synergistic cytotoxic effect; cytotoxic / chemosensitizing effect in combination with various camptothecin derivatives (in words) [5]: synergistic cytotoxic effect
CC[C@H](CO)Nc1nc(NCc2ccccc2)c2ncn(C(C)C)c2n1 [roscovitine]							cytotoxic effect in combination with topotecan (in words) [5]: synergistic cytotoxic effect; cytotoxic / chemosensitizing effect in combination with various camptothecin derivatives (in words) [5]: synergistic cytotoxic effect
CC[C@@]1(O)C(=O)OCc2c1cc1n(c2=O)Cc2cc3c(CN(C)C)c(O)ccc3nc2-1 [topotecan, reference compound]							activity toward NCI-H69 xenografts / tumor volume (in words) ([6]; Compound T alone 100 mg/kg, topotecan 0.6 mg/kg, combination with each Compound T dose (100, 50 or 10 mg/kg), FIG. 16): active and reduced tumor volumes; CR (tumor volume < 15 mm^3) [6, 7]: 0; LTS (individual tumor volume < volume endpoint at study time endpoint) [6, 7]: 1; MTTE ± SD (timepoint in days to reach designated tumor volume or time endpoint) [6, 7]: 52 ± 7 days; PR (%) (tumor volume ≥ 50% regression versus Day 0) [6, 7]: 0%; T-C (difference in days between MTTE of treatment and control groups) [6, 7]: 34 days; TFS (complete responder at study endpoint) [6, 7]: 0; survival versus vehicle or Compound T only (in words) ([6]; topotecan 0.6 mg/kg, with or without Compound T, FIG. 15): survived significantly longer than mice treated with vehicle or Compound T only
